Experimental data: patent publication US20230149383A1, “QUINOLINE COMPOUNDS FOR TREATING LUNG, LIVER, AND KIDNEY DISEASES, DISORDERS, OR CONDITIONS” (Aldeyra Therapeutics, Inc., priority 2020, published 2023)
Read-outs that look alike come from different tables or passages of the source.

Tests used:
Genotoxicity studies = assay: Genotoxicity studies
Description: I-1 plasma concentrations are projected to have reached at least 10 μM, exceeding reported levels of RASP in humans with inflammatory diseases. The data support the potential of I-1, and RASP inhibition in general, in treating inflammation and fibrosis.

[1] = First-in-human Phase 1 trial (SAD/MAD), safety; assay type: in vivo
Description: The adverse event profile was favorable compared to placebo: A total of 6 (9.4%) subjects receiving the test compound had treatment emergent adverse events, compared to 4 (19.1%) subjects who received placebo. […] No changes in serum glucose were observed. […] There were no subjects who had QTcF >500 msec or a change of >60 msec from baseline. […] Three of these five subjects were in the SAD portion of the study (one each in the 100 mg, 200 mg, and 700 mg dose cohorts) and the remaining two subjects were in the MAD portion of the study (one each in the 150 mg BID and 300 mg BID dose cohorts).
Clinical development of compound I-1 in inflammatory disease is supported by safety testing in human healthy volunteers in single and multiple ascending dose (10 day), placebo-controlled Phase I trials.

[2] = Phase 1 trial, pharmacokinetics in healthy volunteers; assay type: in vivo, human; conditions: for Cmax / AUC / half-life: human, in vivo; for AUC: read-out: 0 to 12 hour area under the curve (AUCtau)
Description: Healthy volunteers were dosed with 600 mg of compound I-1 BID for 10 days in the top (highest) dose cohort. […] The 0 to 12 hour area under the curve (AUCtau) was 5710 h*ng/mL (61.5% CV) on Day 1 and 6,800 h*ng/mL (37.9% CV) on Day 10.

[3] = test system: human precision cut liver slices (PCLS); assay: Alcoholic liver injury model in precision-cut liver slices (PCLS); assay type: cell-based
Text: Alcohol abuse results in liver injury, including accumulation of RASP and an increase in inflammation. It is known to cause abnormalities in liver structure and function, including fatty liver, apoptosis, necrosis, fibrosis, and cirrhosis. In order to investigate the utility of the quinoline compounds described herein for reduction of RASP and/or treating liver and associated inflammatory disorders, we employed a known in vitro culture model that employs precision-cut liver slices (PCLS) to measure alcohol-induced liver injury. For this experiment, we used a liver sample donated from a […] with fibrosis. This experiment may also be performed on rat PCLS (procedure provided below). The model is described, for example in Klassen, L. W. et al., Biochemical Pharmacology 76 (2008), 426-436. In this model, PCLS retains excellent viability as determined by lactate dehydrogenase and adenosine triphosphate (ATP) levels over a 96-h period of incubation. The major enzymes of ethanol detoxification (alcohol dehydrogenase, aldehyde dehydrogenase, and cytochrome P4502E1), remain active and PCLS readily metabolizes ethanol and produces acetaldehyde. […] These PCLS secrete albumin, and albumin secretion was decreased by ethanol treatment. All of these impairments are reversed following the addition of 4-methylpyrazole, which is an inhibitor of ethanol metabolism. Therefore, this model system appears to mimic the ethanol-induced changes in the liver that have been previously reported in human and animal studies, and appears to be a useful model for the study of alcoholic liver disease.
Materials and Methods. For human PCLS studies, slices were cut as described below and incubated with conditions below for 24, 48, or 72 hours. Media were changed daily. • Control Media • 25 mM Ethanol Media. • Control Media+10 μM compound I-1 (7 μl of the 5 mg/ml I-1 solution in 1.7 ml) • Ethanol Media+10 μM compound I-1
Incubation of slices with ethanol is performed as follows. Following pre-incubation with WE, slices are incubated with media only (control), media+25 mM ethanol (ethanol), media+25 mM ethanol+0.50 mM 4-methylpyrazole as an optional positive control (ethanol +4-MP), media+0.50 mM 4-methylpyrazole (control+4-MP), control media+test compound, or ethanol media+test compound. The addition of 4-MP may be used in these studies as it is a general inhibitor of ethanol metabolism. The slices are placed in the Dynamic Organ Culture incubator and cultured at 37 C for up to 96 h, and every 24 h the appropriate media is replenished. In order to determine the concentration of ethanol and acetaldehyde in the media, the supernatant is analyzed using headspace gas chromatography.
Viability assays are performed as follows. Slice viability is determined by measuring adenosine triphosphate (ATP) and lactate dehydrogenase (LDH) levels. For the ATP assay, slices are harvested at the appropriate times, placed into 70% ethanol/2 mM EDTA, flash frozen, and stored at −70 C until assayed. Samples are thawed on ice, sonicated, and diluted in 0.1 M Tris-HCl/2 mM EDTA prior to use in a standard ATP assay kit.
For LDH determination, supernatant is collected and frozen at −70 C. The slice is solubilized in WE containing 2% Triton X-100 and LDH determined using a cytotoxicity detection kit (LDH) (e.g., available from Roche Applied Science, Penzberg, Germany). The absorbance of the samples is measured at 490 nm. All protein concentrations from the slices are determined using a BCA protein assay kit. To calculate the % Cytotoxicity at subsequent 24 h time points, the LDH in the media is divided by the total LDH in the PCLS and multiplied by 100.
Triglyceride analysis is performed as follows. At indicated time points, supernatant is removed and slices are washed in PBS (pH 7.4). Slices are placed in PBS containing 0.5% Triton-X100, sonicated, and the equivalent of […] of protein assayed for triglycerides using the serum triglyceride kit. […]

- accumulation of the drug ([2]; across all cohorts): Little to no accumulation
- correlation of Cmax and AUC with dose ([2]; as dose increased): linear correlation
- increase in clearance ([2]; between Day 1 and Day 10): no significant increase in clearance
- Cmax ([2]; 600 mg, 600 mg BID, Day 1): 1920 ng/mL
- AUC ([2]; 600 mg, 600 mg BID, Day 1): 5710 ng·h/mL
- half-life ([2]; 600 mg, 600 mg BID, Day 1, read-out: half-life (converted)): 3.98 h
- Cmax ([2]; 600 mg, 600 mg BID, Day 10): 1460 ng/mL
- AUC ([2]; 600 mg, 600 mg BID, Day 10): 6800 ng·h/mL
- half-life ([2]; 600 mg, 600 mg BID, Day 10, read-out: half-life (converted)): 4.56 h
- half-life ([2]; multiple day exposures, across cohorts, read-out: half-life (t1/2), mean values): 3.07 to 6.2 h
- cyp autoinduction ([2]; over the course of 10 days): no cyp autoinduction was observed
SMILES: CC(C)(O)c1nc2ccccc2cc1N [I-1]
- potential for mutagenicity or clastogenicity (Genotoxicity studies): no potential for mutagenicity or clastogenicity
- risk of genotoxicity (Genotoxicity studies; preclinical studies): low risk of genotoxicity
- overall safety and tolerability ([1]; Phase 1 SAD and MAD (10 day), up to 600 mg BID): safe and tolerable
- subjects with QTcF change of >30 msec from baseline ([1]; SAD 100, 200, 700 mg, MAD 150 mg BID, 300 mg BID cohorts): Five
- QTcF prolongation ([1]; in vivo): did not lead to QTcF prolongation
- changes in heart rate, blood pressure, respiratory rate, pulse oximetry, or temperature ([1]; in vivo): No clinically meaningful changes
- changes in hepatic or renal analytes (ALT, AST, ALP, amylase, GGT, bilirubin, creatinine kinase, creatinine) ([1]; in vivo): No clinically meaningful changes
- changes in serum glucose ([1]; in vivo): No changes
- hematological changes ([1]; in vivo): No clinically significant hematological changes
- interruptions or discontinuations of study drug administration ([1]; in vivo): no interruptions or discontinuations
- subjects with QTcF >500 msec or a change of >60 msec from baseline ([1]; in vivo): no subjects
- subjects with treatment emergent adverse events ([1]; subjects receiving the test compound, number (%)): 6 (9.4%) subjects
- overall effect on cellular stress and toxicity in response to ethanol [3]: acts as a chemoprotectant to reduce cellular stress and toxicity
- triglyceride levels ([3]; 10 μM I-1 + 25 mM ethanol, 24, 48, 72 h): significantly decreased
- acetaldehyde levels ([3]; 10 μM I-1, 24, 48, 72 h): appear to be decreased
- ATP levels ([3]; 10 μM I-1, 24 and 48 hours): remain constant
- ATP levels ([3]; 10 μM I-1, 72 hours): increase
- cytotoxicity (LDH) levels ([3]; ethanol treated + 10 μM I-1): continued to drop
